Test system: K24384-001-R-PDC complex spheroid viability
Assay: Anticancer human tumor K24384-001-R-PDC patient-derived pancreatic adenocarcinoma cell line growth inhibition
Conditions: for IC50: curve of first compound; for viability, T/C: stronger effect = lower value
Excerpt: Multicellular complex tumor spheroid response to LSD1 Inhibitor Iadademstat in combination with a variety of drugs and investigational agents in selected tumor cell lines
The current study was undertaken to assess response to LSD1 inhibitors in combination with standard-of-care drugs and investigational agents in solid tumor complex spheroid models as well as in the K-562 leukemia. Complex spheroids include a stromal component modeled by human endothelial cells (HUVEC) and fibroblasts modeled by human mesenchymal stem cells (MSCs). The concentration ranges selected for each drug and investigational agent were based upon clinically achievable concentrations if the clinical Cmax of the agent was known.
Compounds. The drugs and investigational agents used in this study are listed on Table 1. All of the agents used, including staurosporine (NSC755774) and gemcitabine (NSC613327), were obtained from the Developmental Therapeutics Program, NCI. FDA-approved anticancer drugs are available from the NCI at http://dtp.nci.nih.gov/branches/dscb/oncology_drugset_explanation.html. Drugs and investigational agents were >95% pure by proton nuclear magnetic resonance (NMR) and liquid chromatography/mass spectrometry (LC/MS). Stock solutions were prepared at 400x in DMSO, stored at -70 degrees C, and diluted in fresh medium prior to their use. The final concentration of DMSO in cell culture wells never exceeded 0.25% (v/v). The FDA-approved anticancer drug set is available from the Developmental Therapeutics Program at https://dtp.cancer.gov/organization/dscb/obtaining/available_plates.htm. All drugs and investigational agents were tested over a range starting from a high concentration at or near the clinical Cmax and decreasing in half-log increments. If the clinical Cmax for an agent had not been determined, the highest concentration tested was 10 microM.
Cell Lines. The patient-derived cancer cell (PDC) lines: 292921-168-R-J2-PDC, K24384-001-R-PDC, and 521955-158-R2-J5-PDC pancreatic carcinomas, 556581-035-R-J1 ovarian carcinoma, 324938-238-R-J1-PDC, 855422-203-R-J1-PDC and 883617-216-R-J1-PDC urothelial bladder carcinomas, 743489-274-T-PDC renal cell carcinoma, 138582-R-J1 Merkel cell tumor, K60290-347-R-J1 and K57222-313-R-J1-PDC glioblastomas, 653999-131-R-J2-PDC, LG0703-F948-PDC, and 349418-098-R-PDC non-small cell lung carcinomas, 885512-296-R-J2-PDC, 171881-019-R-J1-PDC breast carcinomas and 186277-243-T-J2-PDC and 233499-124-R-J2-PDC colon carcinomas were obtained from the NCI Patient-Derived Models Repository (PDMR, https://pdmr.cancer.gov). The established cell lines NCI/ADR-RES (RRID:CVCL_14520 and OVCAR-5 (RRID:CVCL_1628) ovarian carcinomas, 786-O (RRID:CVCL_1051) and A498 (RRID:CVCL_A498) renal cell carcinoma, NCI-H211 (ATCC, cat. CRL-5824; RRID:CVCL_1529), NCI-H196 (ATCC, cat. CRL-5823, RRID:CVCL_1509), SW 1271 (ATCC, cat. CRL-2177, RRID:CVCL_1716) and NCI-H1876 (ATCC, cat. CRL-5902, RRID:CVCL_1503) small cell lung carcinomas, MDA-MB-231 (RRID:CVCL_0062) and MDA-MB-468 (RRID:CVCL_0419)breast carcinomas (10-12). Pooled donor human umbilical vein endothelial cells (HUVEC, Lonza, cat. CC-2519) and human mesenchymal stem cells (hMSC, Lonza, cat. PT-2501) were purchased from Lonza (Walkersville, MD).
Cell Culture. All cells were maintained in an incubator at 37 degrees C and 5% CO2 with 95% humidity. The PDC lines were cultured according to standard operating procedures established by the NCI PDMR (https://pdmr.cancer.gov). Briefly all PDCs were thawed and cultured in Matrigel-coated flasks prepared with a working solution of 1X Ham's F-12 nutrient mix, without supplementation (Invitrogen, Waltham, MA, cat. 11765054), 100 U/mL penicillin-streptomycin (Invitrogen, cat. 15140122), and 2.5% Matrigel (Corning Inc., Corning, NY, cat. 354248) for the first three passages. […]

[1] = second compound 0.1 µM, first compound 0.00316 µM
[2] = second compound 0.1 µM, first compound 0.01 µM
[3] = second compound 0.1 µM, first compound 0.0316 µM
[4] = second compound 0.1 µM, first compound 0.1 µM
[5] = second compound 0.1 µM, first compound 0.316 µM
[6] = second compound 0.1 µM, first compound 1 µM
[7] = second compound 0.316 µM, first compound 0.00316 µM
[8] = second compound 0.316 µM, first compound 0.01 µM
[9] = second compound 0.316 µM, first compound 0.0316 µM
[10] = second compound 0.316 µM, first compound 0.1 µM
[11] = second compound 0.316 µM, first compound 0.316 µM
[12] = second compound 0.316 µM, first compound 1 µM
[13] = second compound 1 µM, first compound 0.00316 µM
[14] = second compound 1 µM, first compound 0.01 µM
[15] = second compound 1 µM, first compound 0.0316 µM
[16] = second compound 1 µM, first compound 0.1 µM
[17] = second compound 1 µM, first compound 0.316 µM
[18] = second compound 1 µM, first compound 1 µM
[19] = second compound 3.16 µM, first compound 0.00316 µM
[20] = second compound 3.16 µM, first compound 0.01 µM
[21] = second compound 3.16 µM, first compound 0.0316 µM
[22] = second compound 3.16 µM, first compound 0.1 µM
[23] = second compound 3.16 µM, first compound 0.316 µM
[24] = second compound 3.16 µM, first compound 1 µM
[25] = second compound 10 µM, first compound 0.00316 µM
[26] = second compound 10 µM, first compound 0.01 µM
[27] = second compound 10 µM, first compound 0.0316 µM
[28] = second compound 10 µM, first compound 0.1 µM
[29] = second compound 10 µM, first compound 0.316 µM
[30] = second compound 10 µM, first compound 1 µM
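Note: spheroids exposed to agents for seven days before luminescence viability reading.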
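Throughout, for viability, T/C: 100% = DMSO vehicle control viability.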

SMILES: CCc1c2c(nc3ccc(O)cc13)-c1cc3c(c(=O)n1C2)COC(=O)[C@]3(O)CC + NC1CC1c1ccc(-c2cccc(O)c2)cc1
- IC50 (second compound 0.1 µM): < 0.949 nM
- IC50 (second compound 0.316 µM): < 0.949 nM
- IC50 (second compound 1 µM): < 0.949 nM
- IC50 (second compound 3.16 µM): < 0.949 nM
- IC50 (second compound 10 µM): < 0.949 nM
- viability, T/C (second compound 0.1 µM, first compound 0.000949 µM): 38.8%
- viability, T/C (second compound 0.1 µM, first compound 0.003 µM): 32.7%
- viability, T/C (second compound 0.1 µM, first compound 0.00949 µM): 28.5%
- viability, T/C (second compound 0.1 µM, first compound 0.03 µM): 8.07%
- viability, T/C (second compound 0.1 µM, first compound 0.0949 µM): 5.66%
- viability, T/C (second compound 0.1 µM, first compound 0.3 µM): 4.56%
- viability, T/C (second compound 0.316 µM, first compound 0.000949 µM): 34.2%
- viability, T/C (second compound 0.316 µM, first compound 0.003 µM): 30.9%
- viability, T/C (second compound 0.316 µM, first compound 0.00949 µM): 31.5%
- viability, T/C (second compound 0.316 µM, first compound 0.03 µM): 10.9%
- viability, T/C (second compound 0.316 µM, first compound 0.0949 µM): 8.49%
- viability, T/C (second compound 0.316 µM, first compound 0.3 µM): 5.16%
- viability, T/C (second compound 1 µM, first compound 0.000949 µM): 36.8%
- viability, T/C (second compound 1 µM, first compound 0.003 µM): 34.2%
- viability, T/C (second compound 1 µM, first compound 0.00949 µM): 26.4%
- viability, T/C (second compound 1 µM, first compound 0.03 µM): 7.42%
- viability, T/C (second compound 1 µM, first compound 0.0949 µM): 4.74%
- viability, T/C (second compound 1 µM, first compound 0.3 µM): 4.43%
- viability, T/C (second compound 3.16 µM, first compound 0.000949 µM): 37.1%
- viability, T/C (second compound 3.16 µM, first compound 0.003 µM): 33.7%
- viability, T/C (second compound 3.16 µM, first compound 0.00949 µM): 25.8%
- viability, T/C (second compound 3.16 µM, first compound 0.03 µM): 7.05%
- viability, T/C (second compound 3.16 µM, first compound 0.0949 µM): 4.62%
- viability, T/C (second compound 3.16 µM, first compound 0.3 µM): 4.99%
- viability, T/C (second compound 10 µM, first compound 0.000949 µM): 43.4%
- viability, T/C (second compound 10 µM, first compound 0.003 µM): 34.2%
- viability, T/C (second compound 10 µM, first compound 0.00949 µM): 24%
- viability, T/C (second compound 10 µM, first compound 0.03 µM): 5.88%
- viability, T/C (second compound 10 µM, first compound 0.0949 µM): 5.79%
- viability, T/C (second compound 10 µM, first compound 0.3 µM): 4.12%

SMILES: COc1cc(Nc2ncc3c(n2)-c2ccc(Cl)cc2C(c2c(F)cccc2OC)=NC3)ccc1C(=O)O + NC1CCC(NC2CC2c2ccccc2)CC1
- IC50 (second compound 0.1 µM): > 1000 nM
- IC50 (second compound 0.316 µM): > 1000 nM
- IC50 (second compound 1 µM): > 1000 nM
- IC50 (second compound 3.16 µM): > 1000 nM
- IC50 (second compound 10 µM): > 1000 nM
- viability, T/C [1]: 82.2%
- viability, T/C [2]: 91.4%
- viability, T/C [3]: 70.1%
- viability, T/C [4]: 54.5%
- viability, T/C [5]: 58.4%
- viability, T/C [6]: 84.1%
- viability, T/C [7]: 87.8%
- viability, T/C [8]: 72%
- viability, T/C [9]: 71%
- viability, T/C [10]: 56.7%
- viability, T/C [11]: 52.2%
- viability, T/C [12]: 58.6%
- viability, T/C [13]: 71.1%
- viability, T/C [14]: 87.3%
- viability, T/C [15]: 59.8%
- viability, T/C [16]: 53.8%
- viability, T/C [17]: 67.3%
- viability, T/C [18]: 60.7%
- viability, T/C [19]: 83.7%
- viability, T/C [20]: 77.6%
- viability, T/C [21]: 62.2%
- viability, T/C [22]: 57.3%
- viability, T/C [23]: 51.9%
- viability, T/C [24]: 60.6%
- viability, T/C [25]: 80.8%
- viability, T/C [26]: 84.1%
- viability, T/C [27]: 58.9%
- viability, T/C [28]: 58.8%
- viability, T/C [29]: 52.4%
- viability, T/C [30]: 60.8%

SMILES: COc1cc(Nc2ncc3c(n2)-c2ccc(Cl)cc2C(c2c(F)cccc2OC)=NC3)ccc1C(=O)O + NC1CC1c1ccc(-c2cccc(O)c2)cc1
- IC50 (second compound 0.1 µM): > 1000 nM
- IC50 (second compound 0.316 µM): > 1000 nM
- IC50 (second compound 1 µM): 48.3 nM
- IC50 (second compound 3.16 µM): 34.1 nM
- IC50 (second compound 10 µM): 25.1 nM
- viability, T/C [1]: 74.2%
- viability, T/C [2]: 72.7%
- viability, T/C [3]: 62.4%
- viability, T/C [4]: 57.3%
- viability, T/C [5]: 55.8%
- viability, T/C [6]: 60.3%
- viability, T/C [7]: 68%
- viability, T/C [8]: 63.1%
- viability, T/C [9]: 51.9%
- viability, T/C [10]: 47.8%
- viability, T/C [11]: 45.5%
- viability, T/C [12]: 58.9%
- viability, T/C [13]: 61.1%
- viability, T/C [14]: 62.5%
- viability, T/C [15]: 52.8%
- viability, T/C [16]: 43.7%
- viability, T/C [17]: 43.2%
- viability, T/C [18]: 48.9%
- viability, T/C [19]: 56.6%
- viability, T/C [20]: 64%
- viability, T/C [21]: 50.4%
- viability, T/C [22]: 39.6%
- viability, T/C [23]: 42.5%
- viability, T/C [24]: 49.8%
- viability, T/C [25]: 65.4%
- viability, T/C [26]: 62.4%
- viability, T/C [27]: 45.7%
- viability, T/C [28]: 44.6%
- viability, T/C [29]: 42.4%
- viability, T/C [30]: 54.7%

From PubChem BioAssay AID1918949 (Molecular Pharmacology Branch, DTP, NCI, 2023)
